Experimental data: patent US9073905B2, “Rock inhibitors” (Amakem NV, priority 2011, dated 2015)
Entries after “also recorded” stand apart in the source; their conditions may differ.

Columns and labels:
[1] = target: ROCK2 (Homo sapiens, UniProt O75116); assay: Kinase inhibition (ROCKI & ROCKII), radiometric 33P-ATP biochemical assay
Procedure: On-target activity against ROCK was measured in a biochemical assay, using the following reagents: Base Reaction buffer; 20 mM Hepes (pH 7.5), 10 mM MgCl2, 1 mM EGTA, 0.02% Brij35, 0.02 mg/ml BSA, 0.1 mM Na3VO4, 2 mM DTT, 1% DMSO. Required cofactors are added individually to each kinase reaction. The reaction procedure first involved the preparation of a peptide substrate in a freshly prepared reaction buffer. Required cofactors were then added to the substrate solution. ROCK (1 nM final concentration) was then delivered to the substrate solution. After gentle mix, DMSO solutions of the test compounds were added to the enzyme. Substrate mix ^33P-ATP (specific activity 0.01 μCi/μl final) was then delivered into the reaction mixture to initiate the reaction. The kinase reaction was incubated for 120 min. at room temperature. Reactions were then spotted onto P81 ion exchange paper (Whatman #3698-915). Filters were washed extensively in 0.1% Phosphoric acid. A radiometric count was then performed and IC50 values were subsequently determined.
The IC50 values obtained (in accordance with the protocol set forth above) are represented as follows: “+++” means IC50 below 0.1 μM, “++” means IC50 between 0.1 μM and 1 μM; “+” means IC50 between 1 and 10 μM and “ND” means “not determined yet”.

[2] = Stability towards drug metabolizing enzymes in lung S9; format: in vitro ADME, human; settings: comparison table; for half-life at 1 μM: human, lung S9 (from smokers), read-out: t½ lung S9
Procedure: A 1 μM solution of the ROCK inhibitors is incubated with a reaction mixture containing lung S9 (from smokers) as well as the cofactors NADPH, UDPGA, PAPS and GSH. Samples are collected at 0, 15, 30 and 60 minutes post incubation. Negative control samples incubated with ROCK inhibitors and S9 fraction in the absence of cofactors are run in parallel. By using LC-MS/MS analysis, the percent of ROCK compounds remaining at each time point, the metabolic half-life of the ROCK compounds (expressed in minutes) and the metabolic half-life of the control compounds are determined.

[3] = Stability assay in rabbit aqueous humor; format: in vitro ADME; settings: for half-life at 1 μM: rabbit, read-out: t½ AH
Procedure: Compounds are incubated at a concentration of 1 μM in rabbit aqueous humor (AH). Samples are taken at fixed time points and the remnant of compound is determined by LC-MS/MS after protein precipitation. Half life is expressed in minutes.

[4] = Stability in plasma, species not stated; format: in vitro ADME; settings: for half-life at 1 μM: read-out: t½ Plasma
Procedure: (§1) Compounds are incubated at a concentration of 1 μM in rat (mice or rabbit) or human plasma. Samples are taken at fixed time points and the remnant of compound is determined by LC-MS/MS after protein precipitation. Half life is expressed in minutes.

[5] = system: MLC-T18/S19 phosphorylation; assay: Myosin light chain phosphorylation assay (ELISA) in A7r5 cells; format: cell-based, Rat; settings: for EC50: MLC-T18/S19 phosphorylation, A7r5 cells, serum-free medium; for functional activity in the MLC phosphorylation assay (in words): FIG. 1
Procedure: Rat smooth muscle cell line A7r5 is used. The endogenous expression of ROCK esults in a constitutive phosphorylation of the regulatory myosin light chain at T18/S19. A7r5 cells were plated in DMEM supplemented with 10% FCS in multiwall cell culture plates. After serum starvation overnight, cells were incubated with compounds in serum-free medium.
Quantification of MLC-T18/S19 phosphorylation is assesses in 96 well-plates via ELISA using a phspho-MLC-T18/S19 specific antibody and a secondary detection antibody. Raw data were converted into percent substrate phosphorylation relative to high controls, which were set to 100%.
EC50 values were determined using GraphPad Prism 5.01 software using a nonlinear regression curve fit with variable hill slope.
The EC50 values obtained (in accordance with the protocols set forth above) are represented as follows: “+++” means EC50 below 0.3 μM, “++” means EC50 between 0.3 μM and 1 μM; “+” means EC50 between 1 and 10 μM and “−” means EC50>10 μM.

[6] = Stability assay in human plasma; format: in vitro ADME; settings: 1 μM compound, LC-MS/MS, read-out: t½ human plasma
Procedure: as §1

[7] = aqueous humor, comparison table, aqueous humor
[8] = comparison table, plasma species not given
[9] = ROCK 1 nM, 120 min at room temperature
[10] = aqueous humor, 1 μM in rabbit aqueous humor

ROCK2, sequence (O75116 whole entry, species assumed): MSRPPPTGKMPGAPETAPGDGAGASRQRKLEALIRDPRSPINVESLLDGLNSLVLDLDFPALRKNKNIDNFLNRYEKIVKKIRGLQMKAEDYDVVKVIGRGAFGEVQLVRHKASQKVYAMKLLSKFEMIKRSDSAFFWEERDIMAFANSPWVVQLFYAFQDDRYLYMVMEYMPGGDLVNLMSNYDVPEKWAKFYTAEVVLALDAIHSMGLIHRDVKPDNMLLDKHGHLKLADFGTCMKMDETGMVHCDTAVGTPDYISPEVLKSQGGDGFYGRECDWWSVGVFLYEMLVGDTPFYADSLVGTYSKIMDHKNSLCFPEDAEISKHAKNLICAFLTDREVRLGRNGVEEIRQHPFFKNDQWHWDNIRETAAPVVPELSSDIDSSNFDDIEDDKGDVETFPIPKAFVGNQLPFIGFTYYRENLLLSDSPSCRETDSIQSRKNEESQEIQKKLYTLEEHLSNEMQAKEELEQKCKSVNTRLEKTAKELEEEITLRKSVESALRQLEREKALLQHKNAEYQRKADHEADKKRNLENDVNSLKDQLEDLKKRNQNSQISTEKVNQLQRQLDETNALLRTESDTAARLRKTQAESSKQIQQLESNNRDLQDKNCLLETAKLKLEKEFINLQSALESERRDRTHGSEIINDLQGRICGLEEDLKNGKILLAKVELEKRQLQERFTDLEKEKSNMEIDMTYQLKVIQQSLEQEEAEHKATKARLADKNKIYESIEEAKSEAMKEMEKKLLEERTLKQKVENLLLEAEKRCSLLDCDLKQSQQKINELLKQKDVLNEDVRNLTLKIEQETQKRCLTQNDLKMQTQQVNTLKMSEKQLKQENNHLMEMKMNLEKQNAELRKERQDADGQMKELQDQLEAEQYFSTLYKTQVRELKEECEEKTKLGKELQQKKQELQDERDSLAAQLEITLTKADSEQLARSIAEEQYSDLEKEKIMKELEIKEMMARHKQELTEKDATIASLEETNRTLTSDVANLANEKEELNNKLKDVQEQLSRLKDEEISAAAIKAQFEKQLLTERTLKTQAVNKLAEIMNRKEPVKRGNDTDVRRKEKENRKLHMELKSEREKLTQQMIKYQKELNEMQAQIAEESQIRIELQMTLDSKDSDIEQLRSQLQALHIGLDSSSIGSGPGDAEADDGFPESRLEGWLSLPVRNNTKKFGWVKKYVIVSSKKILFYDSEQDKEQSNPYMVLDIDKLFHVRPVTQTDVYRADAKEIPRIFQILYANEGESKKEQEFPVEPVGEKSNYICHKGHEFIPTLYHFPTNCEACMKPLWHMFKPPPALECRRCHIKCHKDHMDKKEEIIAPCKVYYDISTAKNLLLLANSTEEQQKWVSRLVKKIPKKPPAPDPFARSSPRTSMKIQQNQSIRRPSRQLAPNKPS

| IC50 [1, 9] [µM] | half-life at 1 μM [6] [min] | half-life at 1 μM [3, 10] [min] | Compound | further results |
| --- | --- | --- | --- | --- |
| < 0.1 | 49 | – | O=C(OCC1CC1)c1cccc(CN2CCCC(Nc3cccc4cnccc34)C2)c1 (centres unmarked) [Compound 1] | – |
| 0.1 to 1 | 53 | – | O=C(OCc1ccccc1)c1cccc(CN2CCCC(Nc3cccc4cnccc34)C2)c1 (centres unmarked) [Compound 2] | – |
| 0.1 to 1 | 19 | – | O=C(Oc1ccccc1)c1cccc(CN2CCCC(Nc3cccc4cnccc34)C2)c1 (centres unmarked) [Compound 3] | – |
| < 0.1 | – | – | O=C(OCCO)c1cccc(CN2CCCC(Nc3cccc4cnccc34)C2)c1 (centres unmarked) [Compound 5] | – |
| 0.1 to 1 | – | – | CCSC(=O)c1cccc(CN2CCCC(Nc3cccc4cnccc34)C2)c1 (centres unmarked) [Compound 6] | – |
| < 0.1 | – | – | COC(=O)c1cccc(CN2CCCC(Nc3ccc4[nH]ncc4c3)C2)c1 (centres unmarked) [Compound 7] | EC50 ([5]; Rattus norvegicus): 1 to 10 µM |
| 0.1 to 1 | – | – | COC(=O)c1cccc(CN2CCCC(Nc3cccc4cnccc34)C2)c1 (centres unmarked) [Compound 8] | – |
| < 0.1 | < 5 | – | O=C(Oc1ccccc1)c1cccc(CN2CCCC(Nc3ccc4[nH]ncc4c3)C2)c1 (centres unmarked) [Compound 10] | – |
| 0.1 to 1 | – | – | CCCOC(=O)c1cccc(CN2CCCC(Nc3cccc4cnccc34)C2)c1 (centres unmarked) [Compound 13] | – |
| < 0.1 | 5 | – | O=C(OCC1CCCO1)c1cccc(CN2CCCC(Nc3cccc4cnccc34)C2)c1 (centres unmarked) [Compound 15] | EC50 ([5]; Rattus norvegicus): 1 to 10 µM |
| < 0.1 | 25 | > 120 | O=C(OCC1CC1)c1cccc(CN2CCCC(Nc3ccc4[nH]ncc4c3)C2)c1 (centres unmarked) [Compound 17] | inhibitory activity against ROCK (in words) ([1]; summary of point C1.1): strong inhibitory activity; functional activity in the MLC phosphorylation assay (in words) [5]: display functional activity; EC50 ([5]; Rattus norvegicus): 0.3 to 1 µM; half-life in aqueous humor compared with plasma (in words) ([3]; text summary of point C.2.3): significantly longer half-life in aqueous humor than in plasma; half life in plasma (in words) ([4]; point C.2.1): short half life |
| < 0.1 | – | – | COC(=O)c1cccc(CN2CCC(Nc3cccc4cnccc34)C2)c1 (centres unmarked) [Compound 20] | – |
| 0.1 to 1 | – | – | CCOC(=O)c1cccc(CN2CCC(Nc3cccc4cnccc34)C2)c1 (centres unmarked) [Compound 21] | – |
| – | – | > 120 | COC(=O)c1ccc(NC(=O)c2cccc(CN3CCCC(Nc4cccc5cnccc45)C3)c2)cc1 (centres unmarked) [Compound 25] | – |
| < 0.1 | 4 | 111 | O=C1OCC(CCNC(=O)c2cccc(CN3CCCC(Nc4cccc5cnccc45)C3)c2)O1 (centres unmarked) [Compound 27] | – |
| < 0.1 | < 5 | > 120 | O=C1OCC(CCNC(=O)c2cccc(CN3CCCC(Nc4ccc5[nH]ncc5c4)C3)c2)O1 (centres unmarked) [Compound 29] | – |
| < 0.1 | – | > 120 | COC(=O)c1cccc(NC(=O)c2cccc(CN3CCCC(Nc4cccc5cnccc45)C3)c2)c1 (centres unmarked) [Compound 30] | – |
| – | < 5 | > 120 | COC(=O)Cc1cccc(NC(=O)c2cccc(CN3CCCC(Nc4cccc5cnccc45)C3)c2)c1 (centres unmarked) [Compound 31] | – |
| < 0.1 | < 4 | 59 | COC(=O)Cc1cccc(NC(=O)c2cccc(CN3CCC(Nc4cccc5cnccc45)C3)c2)c1 (centres unmarked) [Compound 33] | – |
| < 0.1 | – | > 120 | COC(=O)Cc1ccc(NC(=O)c2cccc(CN3CCCC(Nc4cccc5cnccc45)C3)c2)cc1 (centres unmarked) [Compound 34] | – |
| < 0.1 | – | > 120 | COC(=O)c1ccc(NC(=O)c2cccc(CN3CCC(Nc4cccc5cnccc45)C3)c2)cc1 (centres unmarked) [Compound 35] | – |
| < 0.1 | 24 | > 120 | COC(=O)Cc1ccc(NC(=O)c2cccc(CN3CCC(Nc4cccc5cnccc45)C3)c2)cc1 (centres unmarked) [Compound 36] | – |
| < 0.1 | – | > 120 | COC(=O)c1cccc(NC(=O)c2cccc(CN3CCCC(Nc4ccc5[nH]ncc5c4)C3)c2)c1 (centres unmarked) [Compound 37] | – |
| – | – | > 120 | COC(=O)Cc1cccc(NC(=O)c2cccc(CN3CCCC(Nc4ccc5[nH]ncc5c4)C3)c2)c1 (centres unmarked) [Compound 38] | – |

The remaining lines, values behind:

| Compound | IC50 [1, 9] [µM] | half-life at 1 μM [6] [min] | half-life at 1 μM [3, 10] [min] | further results |
| --- | --- | --- | --- | --- |
| CCOC(=O)COc1cccc(CN2CCCC(Nc3ccc4[nH]ncc4c3)C2)c1 (racemic) [Compound 1.060, reference compound] | – | – | – | IC50 ([1]; comparison table): 0.007 µM; t½ lung S9 [2]: <5 min; half-life at 1 μM [2]: < 5 min; t½ AH ([3]; comparison table, aqueous humor): <5 min; half-life at 1 μM [3, 7]: < 5 min; t½ Plasma [4, 8]: <5 min; half-life at 1 μM [4, 8]: < 5 min |
| CS(=O)(=O)Nc1cccc(CN2CCCC(Nc3ccc4[nH]ncc4c3)C2)c1 (centres unmarked) [Compound 1.091, reference compound] | – | – | – | IC50 ([1]; comparison table): 0.0024 µM; IC50 ([5]; Rattus norvegicus, A7R5, comparison table, MLC phosphorylation, read-out: IC50 MLC-PP): 0.11 µM; half-life at 1 μM [2]: > 240 min; half-life at 1 μM [3, 7]: > 120 min; half-life at 1 μM [4, 8]: > 120 min; degradation in the tested media, including plasma (in words) ([4]; plasma, aqueous humor, lung S9): not degraded at a significant rate |
| CCCOC(=O)Cc1cccc(CN2CCCC(Nc3ccc4[nH]ncc4c3)C2)c1 (centres unmarked) [Compound 4] | < 0.1 | – | – | – |
| CCCOC(=O)c1cccc(CN2CCCC(Nc3ccc4[nH]ncc4c3)C2)c1 (centres unmarked) [Compound 9] | < 0.1 | – | – | EC50 ([5]; Rattus norvegicus): 0.3 to 1 µM |
| COC(=O)Cc1cccc(CN2CCCC(Nc3ccc4[nH]ncc4c3)C2)c1 (centres unmarked) [Compound 11] | < 0.1 | – | – | – |
| COCCOC(=O)Cc1cccc(CN2CCCC(Nc3ccc4[nH]ncc4c3)C2)c1 (centres unmarked) [Compound 12] | < 0.1 | – | – | – |
| CCSC(=O)c1cccc(CN2CCCC(Nc3ccc4[nH]ncc4c3)C2)c1 (centres unmarked) [Compound 16] | < 0.1 | – | – | – |
| O=C(OCc1ccccc1)c1cccc(CN2CCCC(Nc3ccc4[nH]ncc4c3)C2)c1 (centres unmarked) [Compound 18] | < 0.1 | 26 | – | – |
| O=C(OCCO)c1cccc(CN2CCCC(Nc3ccc4[nH]ncc4c3)C2)c1 (centres unmarked) [Compound 19] | < 0.1 | – | – | EC50 ([5]; Rattus norvegicus): 0.3 to 1 µM |
| COC(=O)c1ccc(CN2CCCC(Nc3ccc4[nH]ncc4c3)C2)s1 (centres unmarked) [Compound 23] | < 0.1 | – | – | – |
| COC(=O)c1ccc(CN2CCCC(Nc3ccc4[nH]ncc4c3)C2)[nH]1 (centres unmarked) [Compound 24] | < 0.1 | – | – | – |
| COC(=O)c1ccc(NC(=O)c2cccc(CN3CCCC(Nc4ccc5[nH]ncc5c4)C3)c2)cc1 (centres unmarked) [Compound 39] | – | – | > 120 | – |
| COC(=O)Cc1ccc(NC(=O)c2cccc(CN3CCCC(Nc4ccc5[nH]ncc5c4)C3)c2)cc1 (centres unmarked) [Compound 40] | – | 40 | > 120 | – |
| COC(=O)c1cccc(NC(=O)Cc2cccc(CN3CCCC(Nc4ccc5[nH]ncc5c4)C3)c2)c1 (centres unmarked) [Compound 41] | < 0.1 | 10 | > 120 | – |
| COC(=O)Cc1cccc(NC(=O)Cc2cccc(CN3CCCC(Nc4ccc5[nH]ncc5c4)C3)c2)c1 (centres unmarked) [Compound 42] | < 0.1 | < 5 | – | – |
| COC(=O)c1ccc(NC(=O)Cc2cccc(CN3CCCC(Nc4ccc5[nH]ncc5c4)C3)c2)cc1 (centres unmarked) [Compound 43] | – | – | > 120 | – |
| COC(=O)Cc1ccc(NC(=O)Cc2cccc(CN3CCCC(Nc4ccc5[nH]ncc5c4)C3)c2)cc1 (centres unmarked) [Compound 44] | < 0.1 | < 5 | – | – |
| O=C(O)c1cccc(CN2CCCC(Nc3ccc4[nH]ncc4c3)C2)c1 (centres unmarked) [Met1, 3-({3-[(1H-indazol-5-yl)amino]piperidin-1-yl}methyl)benzoic acid] | – | – | – | functional activity in the MLC phosphorylation assay (in words) [5]: functionally inactive compound; also recorded: devoid of functional activity; EC50 ([5]; Rattus norvegicus): > 10 µM |
